According to patent publication US20140005276A1, “COMPOSITIONS COMPRISING SUBSTITUTED PHENOLS AND TOPICAL APPLICATION THEREOF” (priority 2012, published 2014):

What was measured:
[1] = tested on: NF-kB; assay: NF-κB INHIBITION TEST (NF-kB luciferase reporter, TNFα-stimulated H9c2 cells); format: cell-based, Rat
Procedure: The NF-κB INHIBITION TEST was conducted as follows. Rat cardiac myoblasts H9c2 cells were purchased from ATCC (Manassas, Va.). Cultures were maintained in Dulbecco's modified Eagle's medium (DMEM, Invitrogen Life Technologies, Carlsbad, Calif.) supplemented with 10% fetal bovine serum, 100 units/ml penicillin, and 50 ug/ml streptomycin (Invitrogen life technologies, Carlsbad, Calif.). 1×10^4 cells grown in 96-well plates were transiently transfected with 0.45 ug total DNA per well using Lipofectamine 2000 (Invitrogen life technologies, Carlsbad, Calif.). In all transfections, a construct with the thymidine kinase promoter and the Renilla luciferase reporter gene (pRL-TK, Promega, Madison Wis.) was included as an internal control in addition to the NF-kB luciferase promoter. One day after transfection, cells were treated with the indicated samples (in DMSO as vehicle) at indicated concentrations and stimulated with 100 ng/mL of Tumor Necrosis Factor-α (TNFα, Sigma-Aldrich, St Louis, Mo.) for approximately 24 hours before they were lysed for luciferase assays, using Dual-Luciferase Reporter System from Promega (Madison, Wis.), following manufacturer's protocol. Briefly, the firefly luciferase activity was measured first (representing NF-kB promoter activity), followed by the renilla luciferase (internal control), using luminometer LMAX, from Molecular Devices (Sunnyvale, Calif.). The ratio of these two luciferase activities (RLU) was used to evaluate the activity of each promoter:
NF-κB Inhibition=[1−(RLUsample/RLUcontrol)]*100
where RLUsample and RLUcontrol are the normalized luciferase activity ratios of the sample and control, respectively.
Percent NF-kB Inhibition is also reported.

[2] = tested on: Collagenase; assay: Collagenase inhibition, EnzCheck assay; format: biochemical
Procedure: Collagenase inhibition was measured using EnzCheck® assay (Molecular Probes, Eugene, Oreg.) according to the manufacturer's instructions. Test materials were evaluated over a wide range of concentrations. Fluorescence was measured after 2-3 hours using a microplate reader set with the wavelength combination 485/530 nm

[3] = 0.0001% by weight of alkylphenol
[4] = 0.001% by weight of alkylphenol
[5] = 10 ug/mL, TNFα 100 ng/ml stimulated H9c2 cells

With Oc1ccc(/C=C/c2cc(O)cc(/C=C/c3ccc(O)cc3)c2)cc1 [1-hydroxyl 3,5-bis(4′hydroxylstyryl)benzene] the “Percent NF-kB Inhibition relative to vehicle” value ([1]; 0.2 ug/ml, vehicle 0.1% DMSO) was 0.5%, the “Percent NF-kB Inhibition relative to vehicle” value ([1]; 0.5 ug/ml, vehicle 0.1% DMSO) was 22.1% and the “Percent NF-kB Inhibition relative to vehicle” value ([1]; 1 ug/ml, vehicle 0.1% DMSO) was 51.7%. For the same molecule, the “Percent NF-kB Inhibition relative to vehicle” value ([1]; 2 ug/ml, vehicle 0.1% DMSO) was 71.0% and the “Percent NF-kB Inhibition relative to vehicle” value ([1]; 4 ug/ml, vehicle 0.1% DMSO) was 96.1%.

CCCCCc1ccc(O)cc1 [4-amylphenol] was tested, and the “Percent Inhibition of Collagenase” value [2, 3] was 29.42%, the “Percent Inhibition of Collagenase” value [2, 4] was 29.30% and the “Percent Inhibition of Collagenase” value ([2]; 0.01% by weight of alkylphenol) was 34.19%. For the same molecule, the “Percent Inhibition of Collagenase” value ([2]; 0.1% by weight of alkylphenol) was 44.66%, the “Percent Inhibition of Collagenase” value ([2]; 1% by weight of alkylphenol) was 53.33% and the “Percent NF-kB Inhibition relative to vehicle” value [1, 5] was 54.2%.

For CCCCc1ccc(O)cc1 [4-butylphenol], the “Percent Inhibition of Collagenase” value [2, 3] was 26.55%, the “Percent Inhibition of Collagenase” value [2, 4] was 23.16% and the “Percent Inhibition of Collagenase” value ([2]; 0.01% by weight of alkylphenol) was 26.81%. The “Percent Inhibition of Collagenase” value ([2]; 0.1% by weight of alkylphenol) was 54.38% and the “Percent Inhibition of Collagenase” value ([2]; 1% by weight of alkylphenol) was 59.51%.

For CCCCCCc1ccc(O)cc1 [4-hexylphenol], the “Percent Inhibition of Collagenase” value [2, 3] was 19.57%, the “Percent Inhibition of Collagenase” value [2, 4] was 16.90% and the “Percent Inhibition of Collagenase” value ([2]; 0.01% by weight of alkylphenol) was 27.67%. The “Percent Inhibition of Collagenase” value ([2]; 0.1% by weight of alkylphenol) was 28.82% and the “Percent Inhibition of Collagenase” value ([2]; 1% by weight of alkylphenol) was 46.13%.

For CCCc1ccc(O)cc1 [4-propylphenol, reference compound], the “Percent NF-kB Inhibition relative to vehicle” value [1, 5] was “(−49.2%)” and the “Percent NF-kB Inhibition relative to vehicle” value ([1]; 25 ug/mL, TNFα 100 ng/ml stimulated H9c2 cells) was “(−59.1%)”.
